Where a name gives a salt, the structure may show the parent alone. Read-outs that look alike come from different tables or passages of the source.
Experiments:
[1] = tested on: tumor necrosis factor (α) (TNF-α) induction in human peripheral blood mononuclear cells (PBMC); assay: Cytokine induction in human cells (PBMC): TNF-α secreted into culture media, ORIGEN M-Series immunoassay; assay type: cell-based; conditions: for minimal effective concentration: Homo sapiens, PBMC, read-out: Minimum Effective Concentration (μM) TNF; for Maximal Response (pg/mL) TNF: maximal response in dose response curve, background-subtracted, reference-adjusted, * = below background of 40 pg/mL
Text: (§1) Cytokine Induction in Human Cells
(§2) An in vitro human blood cell system is used to assess cytokine induction. Activity is based on the measurement of interferon (α) and tumor necrosis factor (α) (IFN-α and TNF-α, respectively) secreted into culture media as described by Testerman et. al. in “Cytokine Induction by the Immunomodulators Imiquimod and S-27609”, Journal of Leukocyte Biology, 58, 365-372 (September, 1995).
(§3) Blood Cell Preparation for Culture
(§4) Whole blood from healthy human donors is collected by venipuncture into vacutainer tubes or syringes containing EDTA. Peripheral blood mononuclear cells (PBMC) are separated from whole blood by density gradient centrifugation using HISTOPAQUE-1077 (Sigma, St. Louis, Mo.) or Ficoll-Paque Plus (Amersham Biosciences Piscataway, N.J.). Blood is diluted 1:1 with Dulbecco's Phosphate Buffered Saline (DPBS) or Hank's Balanced Salts Solution (HBSS). Alternately, whole blood is placed in Accuspin (Sigma) or LeucoSep (Greiner Bio-One, Inc., Longwood, Fla.) centrifuge frit tubes containing density gradient medium. The PBMC layer is collected and washed twice with DPBS or HBSS and re-suspended at 4×10^6 cells/mL in RPMI complete. The PBMC suspension is added to 96 well flat bottom sterile tissue culture plates containing an equal volume of RPMI complete media containing test compound.
(§5) The compounds are solubilized in dimethyl sulfoxide (DMSO). The DMSO concentration should not exceed a final concentration of 1% for addition to the culture wells. The compounds are generally tested at concentrations ranging from 30-0.014 μM. Controls include cell samples with media only, cell samples with DMSO only (no compound), and cell samples with reference compound.
(§6) The solution of test compound is added at 60 μM to the first well containing RPMI complete and serial 3 fold dilutions are made in the wells. The PBMC suspension is then added to the wells in an equal volume, bringing the test compound concentrations to the desired range (usually 30-0.014 μM). The final concentration of PBMC suspension is 2×10^6 cells/mL. The plates are covered with sterile plastic lids, mixed gently and then incubated for 18 to 24 hours at 37° C. in a 5% carbon dioxide atmosphere.
(§7) Following incubation the plates are centrifuged for 10 minutes at 1000 rpm (approximately 200×g) at 4° C. The cell-free culture supernatant is removed and transferred to sterile polypropylene tubes. Samples are maintained at −30 to −70° C. until analysis. The samples are analyzed for IFN-α by ELISA and for TNF-α by IGEN/BioVeris Assay.
(§8) Interferon (α) and Tumor Necrosis Factor (α) Analysis
The TNF-α concentration is determined by ORIGEN M-Series Immunoassay and read on an IGEN M-8 analyzer from BioVeris Corporation, formerly known as IGEN International, Gaithersburg, Md. The immunoassay uses a human TNF-α capture and detection antibody pair (Catalog Numbers AHC3419 and AHC3712) from Biosource International, Camarillo, Calif. Results are expressed in pg/mL.
(§9) In total, the data output of the assay consists of concentration values of TNF-α and IFN-α (y-axis) as a function of compound concentration (x-axis).
Analysis of the data has two steps. First, the greater of the mean DMSO (DMSO control wells) or the experimental background (usually 20 pg/mL for IFN-α and 40 pg/mL for TNF-α) is subtracted from each reading. If any negative values result from background subtraction, the reading is reported as “*”, and is noted as not reliably detectable. In subsequent calculations and statistics, “*”, is treated as a zero. Second, all background subtracted values are multiplied by a single adjustment ratio to decrease experiment to experiment variability. The adjustment ratio is the area of the reference compound in the new experiment divided by the expected area of the reference compound based on the past 61 experiments (unadjusted readings). […]

[2] = tested on: interferon (α) (IFN-α) induction in human peripheral blood mononuclear cells (PBMC); assay: Cytokine induction in human cells (PBMC): IFN-α secreted into culture media, ELISA; assay type: cell-based; conditions: read-out: Minimum Effective Concentration (μM) IFN
Text: as §1, §2, §3, §4, §5, §6, §7, §8
IFN-α concentration is determined with a human multi-subtype calorimetric sandwich ELISA (Catalog Number 41105) from PBL Biomedical Laboratories, Piscataway, N.J. Results are expressed in pg/mL.
as §9
Analysis of the data has two steps. First, the greater of the mean DMSO (DMSO control wells) or the experimental background (usually 20 pg/mL for IFN-α and 40 pg/mL for TNF-α) is subtracted from each reading. If any negative values result from background subtraction, the reading is reported as “*”, and is noted as not reliably detectable. In subsequent calculations and statistics, “*”, is treated as a zero. Second, all background subtracted values are multiplied by a single adjustment ratio to decrease experiment to experiment variability. The adjustment ratio is the area of the reference compound in the new experiment divided by the expected area of the reference compound based on the past 61 experiments (unadjusted readings). […] The reference compound used is 2-[4-amino-2-ethoxymethyl-6,7,8,9-tetrahydro-α,α-dimethyl-1H-imidazo[4,5-c]quinolin-1-yl]ethanol hydrate (U.S. Pat. No. 5,352,784; Example 91) and the expected area is the sum of the median dose values from the past 61 experiments. […]

[3] = lowest tested concentration inducing TNF-α over 40 pg/mL, median where more than one experiment
[4] = median where more than one experiment
[5] = lowest tested concentration inducing IFN-α over 20 pg/mL, median where more than one experiment
[6] = 18 to 24 hours incubation, tested 30-0.014 μM, lowest concentration inducing response over 40 pg/mL TNF-α, median of # experiments
[7] = 18 to 24 hours incubation, tested 30-0.014 μM, lowest concentration inducing response over 20 pg/mL IFN-α, median of # experiments

Row | Compound | melting point | minimal effective concentration [1, 3] | Maximal Response (pg/mL) TNF [1, 4] | minimal effective concentration [2, 5] | minimal effective concentration [1, 6] | minimal effective concentration [2, 7]
1 | CC(C)(N)Cn1c(CO)nc2c(N)nc3ccccc3c21 [Example 4, 1-(2-Amino-2-methylpropyl)-2-hydroxymethyl-1H-imidazo[4,5-c]quinolin-4-amine] | 248 to 250 °C | 3.33 µM | – | 0.37 µM | – | –
2 | CCc1nc2c(N)nc3ccccc3c2n1CC(C)(C)NS(C)(=O)=O [Analog 2, N-[2-(4-Amino-2-ethyl-1H-imidazo[4,5-c]quinolin-1-yl)-1,1-dimethylethyl]methanesulfonamide, reference compound] | – | 1.11 µM | – | 0.12 µM | 1.11 µM | 0.12 µM
3 | CCCc1nc2c(N)nc3ccccc3c2n1CC(C)(C)NS(C)(=O)=O [Analog 3, N-[2-(4-Amino-2-propyl-1H-imidazo[4,5-c]quinolin-1-yl)-1,1-dimethylethyl]methanesulfonamide, reference compound] | – | 0.37 µM | – | 0.12 µM | 0.37 µM | 0.12 µM
4 | Nc1nc2ccccc2c2c1nc(CO)n2CC1CCOCC1 [Example 150, [4-Amino-1-(tetrahydro-2H-pyran-4-ylmethyl)-1H-imidazo[4,5-c]quinolin-2-yl]methanol] | 239 to 241 °C | – | – | – | – | –
5 | CCOCc1nc2c(N)nc3ccccc3c2n1CC(C)(C)NS(C)(=O)=O [Analog 4, N-[2-(4-Amino-2-ethoxymethyl-1H-imidazo[4,5-c]quinolin-1-yl)-1,1-dimethylethyl]methanesulfonamide, reference compound] | – | 0.37 µM | – | 0.04 µM | 0.37 µM | 0.04 µM
6 | COCCc1nc2c(N)nc3ccccc3c2n1CC(C)(C)NS(C)(=O)=O [Analog 5, N-{2-[4-Amino-2-(2-methoxyethyl)-1H-imidazo[4,5-c]quinolin-1-yl]-1,1-dimethylethyl}methanesulfonamide, reference compound] | – | 0.12 µM | – | 0.014 µM | 0.12 µM | 0.014 µM
7 | Cc1nc2c(N)nc3ccccc3c2n1CC(C)(C)NS(C)(=O)=O [Analog 1, N-[2-(4-Amino-2-methyl-1H-imidazo[4,5-c]quinolin-1-yl)-1,1-dimethylethyl]methanesulfonamide, reference compound] | – | 3.33 µM | – | 0.37 µM | 3.33 µM | 0.37 µM

The next lines start with results.

Row | melting point | Compound | minimal effective concentration [1, 3] | Maximal Response (pg/mL) TNF [1, 4] | minimal effective concentration [2, 5] | minimal effective concentration [1, 6] | minimal effective concentration [2, 7]
8 | 216 to 219 °C | CS(=O)(=O)NCCCCn1c(CO)nc2c(N)nc3ccccc3c21 [Example 147, N-[4-(4-amino-2-hydroxymethyl-1H-imidazo[4,5-c]quinolin-1-yl)butyl]methanesulfonamide] | > 30 µM | * (TNF below experimental background of 40 pg/mL.) | 0.37 µM | – | –
9 | 222 to 224 °C | CC(C)C(=O)NCCCCn1c(CO)nc2c(N)nc3ccccc3c21 (as salt: salt) [Example 146, N-[4-(4-amino-2-hydroxymethyl-1H-imidazo[4,5-c]quinolin-1-yl)butyl]isobutyramide] | – | – | – | – | –
10 | > 240 °C | CC(C)NC(=O)NCCn1c(CO)nc2c(N)nc3ccccc3c21 [Example 144, N-{2-[4-amino-2-(hydroxymethyl)-1H-imidazo[4,5-c]quinolin-1-yl]ethyl}-N′-isopropylurea] | 3.33 µM | – | 0.37 µM | – | –
11 | 196 to 199 °C | CC(C)NC(=O)NC(C)(C)Cn1c(CO)nc2c(N)nc3ccccc3c21 [Example 142, 1-[2-(4-Amino-2-hydroxymethyl-1H-imidazo[4,5-c]quinolin-1-yl)-1,1-dimethylethyl]-3-(1-methylethyl)urea] | > 30 µM | * (TNF below experimental background of 40 pg/mL.) | 1.11 µM | – | –
12 | 231 to 232 °C | Cc1ccc(S(=O)(=O)NCCCn2c(CCO)nc3c(N)nc4ccccc4c32)cc1 [Example 1, N-{3-[4-Amino-2-(2-hydroxyethyl)-1H-imidazo[4,5-c]quinolin-1-yl]propyl}-4-methylbenzenesulfonamide] | 10 µM | – | 0.37 µM | – | –
13 | 262 to 265 °C | CC(C)(Cn1c(CO)nc2c(N)nc3ccccc3c21)NS(C)(=O)=O [Example 7, N-[2-(4-Amino-2-hydroxymethyl-1H-imidazo[4,5-c]quinolin-1-yl)-1,1-dimethylethyl]methanesulfonamide] | 30 µM | – | 3.33 µM | 30 µM | 3.33 µM
14 | 161 to 163 °C | CC(C)[C@H](N)C(=O)OCc1nc2c(N)nc3ccccc3c2n1CCCCNS(C)(=O)=O [Example 149, (4-Amino-1-{4-[(methylsulfonyl)amino]butyl}-1H-imidazo[4,5-c]quinolin-2-yl)methyl L-valinate] | – | – | – | – | –
15 | 99 to 100 °C | CC(C)[C@H](NC(=O)OCc1ccccc1)C(=O)OCc1nc2c(N)nc3ccccc3c2n1CCCCNS(C)(=O)=O [Example 148, (4-Amino-1-{4-[(methylsulfonyl)amino]butyl}-1H-imidazo[4,5-c]quinolin-2-yl)methyl N-[(benzyloxy)carbonyl]-L-valinate] | – | – | – | – | –
16 | 196 to 198 °C | CC(C)C(=O)NCCCn1c(CCO)nc2c(N)nc3ccccc3c21 [Example 141, N-{3-[4-Amino-2-(2-hydroxyethyl)-1H-imidazo[4,5-c]quinolin-1-yl]propyl}-2-methylpropionamide] | 30 µM | – | 0.04 µM | – | –
17 | 183 to 186 °C | Nc1nc2ccccc2c2c1nc(CO)n2CCCCNC(=O)C1CCCC1 [Example 145, N-{4-[4-amino-2-(hydroxymethyl)-1H-imidazo[4,5-c]quinolin-1-yl]butyl}cyclopentanecarboxamide] | – | – | – | – | –

From US8178677B2, “Hydroxyalkyl substituted imidazoquinolines” (3M Innovative Properties Company, priority 2005, dated 2012)
